In publication PMC11855827, “High-Throughput Screening of Five Compound Libraries for Anthelmintic Activity and Toxicity Leads to the Discovery of Two Flavonoid Compounds” (International Journal of Molecular Sciences, 2025):

System: C. elegans
Conditions: Table S2, C. elegans SS assay, 110 μM, averages of 4 data points

| Structure (SMILES) | Percentage of motility inhibition 0 h | Percentage of motility inhibition 24 h |
| --- | --- | --- |
| CO/N=C(\C(=O)N[C@@H]1C(=O)N2C(C(=O)O)=C(C[N+]3(C)CCCC3)CS[C@H]12)c1csc(N)n1.Cl.O.[Cl-] [Cefepime (Dihydrochloride Monohydrate)] | 7% | 1% |
| O=c1[nH]c2ccccc2c(-c2cccc(O)c2)c1O [Viridicatol] | 0% | 0% |
| Br.O=C(CC1NCCCC1O)Cn1cnc2cc(Br)c(Cl)cc2c1=O (stereo not shown) [Halofuginone (hydrobromide)] | 4% | 0% |
| C=C(CCC=C(C)C)[C@H]1CC[C@]2(C)[C@@H]1[C@H](O)C[C@@H]1[C@@]3(C)CC[C@H](O)C(C)(C)[C@@H]3[C@@H](O[C@@H]3O[C@H](CO)[C@@H](O)[C@H](O)[C@H]3O[C@@H]3O[C@@H](C)[C@H](O)[C@@H](O)[C@H]3O)C[C@]12C [Ginsenoside Rg6] | 1% | 4% |
| COc1cc(-c2coc3c([C@@H]4O[C@H](CO)[C@@H](O)[C@H](O)[C@H]4O)c(O)ccc3c2=O)ccc1O [3'‐Methoxypuerarin] | 11% | 51% |
| Oc1cnc2c(O)cccc2c1 [Jineol] | 0% | 0% |
| N#C[C@@H](O[C@@H]1O[C@H](CO[C@@H]2O[C@H](CO)[C@@H](O)[C@H](O)[C@H]2O)[C@@H](O)[C@H](O)[C@H]1O)c1ccccc1 [Neoamygdalin] | 0% | 0% |
| COc1cc[nH]c(=O)c1C#N [N‐Demethylricinine] | 0% | 7% |
| Oc1ccc([C@H]2Oc3cc(O)cc(O)c3C[C@H]2O)cc1 [(‐)‐Epiafzelechin] | 13% | 42% |
| COc1cc2c(cc1O)C[C@@H]1NCCc3cc(O)c(OC)c-2c31.Cl [Laurolitsine (hydrochloride)] | 36% | 5% |
| COc1cc(O)c(CC=C(C)C)c2c1C(=O)C[C@@H](c1ccc(O)cc1)O2 [(2S)‐Isoxanthohumol] | 0% | 2% |
| O=c1c(O[C@@H]2O[C@H](CO[C@@H]3O[C@H](CO)[C@@H](O)[C@H](O)[C@H]3O)[C@@H](O)[C@H](O)[C@H]2O)c(-c2ccc(O)c(O)c2)oc2cc(O)cc(O)c12 [Quercetin 3‐gentiobioside] | 42% | 0% |
| CC(C)C[C@H]1C(=O)O[C@H](Cc2ccc(N3CCOCC3)cc2)C(=O)N(C)[C@@H](CC(C)C)C(=O)O[C@H](C)C(=O)N(C)[C@@H](CC(C)C)C(=O)O[C@H](Cc2ccc(N3CCOCC3)cc2)C(=O)N(C)[C@@H](CC(C)C)C(=O)O[C@H](C)C(=O)N1C [Emodepside] | 69% | 47% |
| CC1(C)CC[C@]2(C(=O)O)CC[C@]3(C)C(=CC[C@@H]4[C@@]5(C)CC[C@H](O[C@@H]6OC[C@H](O)[C@H](O)[C@H]6O[C@@H]6O[C@H](CO)[C@@H](O)[C@H](O)[C@H]6O)[C@@](C)(CO)[C@@H]5CC[C@]43C)[C@@H]2C1 [Cauloside C] | 0% | 10% |
| C[C@@H]1O[C@@H](O[C@@H]2[C@@H](O)[C@H](O)[C@@H](CO)O[C@H]2c2c(O)cc(O)c3c(=O)cc(-c4ccc(O)cc4)oc23)[C@H](O)[C@H](O)[C@H]1O [Vitexin‐2"‐O‐rhamnoside] | 2% | 52% |
| O=C1O[C@H]([C@@H](O)CO)C([O-])=C1O.[Na+] [L-Ascorbic acid (sodium salt)] | 6% | 3% |
| CC(C)=CCC/C(C)=C/Cc1cc(-c2coc3cc(O)ccc3c2=O)ccc1O [Corylifol A] | 40% | 4% |
